US20110034472A1, “Novel Compounds for Treatment of Cancer and Disorders Associated With Angiogenesis Function” (UNIVERSITY OF SOUTHERN CALIFORNIA, priority 2004, published 2011)

Test system: T24 bladder cancer cell lines
Assay: StaRT-PCR gene expression, SC23
Assay type: cell-based, human
Procedure: FIG. 21 illustrates RT-PCR gene expression analysis. Total RNA form T24 cells was isolated and cDNA was synthesized with 2.5 ug of total RNA. Standardized RT-PCR was performed with GENE system I gene expression kit (Gene Express Inc.). Each kit contains a mixture of the internal competitive templates and the corresponding primers.
Total RNA form T24 cells were isolated after 3h, Oh, 12h, 24h, and 48h exposure to SC23.
StaRT-PCR™ (Standardized Reverse Transcription Polymerase Chain Reaction). First described by Willey et al. ((2004) Methods Mol. Biol. 258:13-41), this technique uses standardized mixtures of competitive templates (CT) as internal standards in generating valid and reproducible numerical gene expression data for multiple genes. After the mRNA was converted to cDNA, the cDNA was mixed with a proprietary Standardized Mixture of Internal Standards™ (SMIS™, GeneExpress, Inc.). In the standard mixture, there is an internal standard CT for each gene to be measured as well as one for a reference gene. (i.e., β-actin, GAPDH). The amplicons produced by StaRT-PCR™ was then separated on capillary electrophoresis. The amount of internal standard CT or NT amplimer was determined by measuring each peak area. All data were then reported as number of molecules of mRNA for gene of interest per 10^6 molecules of reference gene (normalizer gene). Serial dilutions of the SMIS™ allow quantitative measurements over 7 log range of gene expression observed in cells from <10 to 10^7 molecules/10^6 molecules reference gene. Data presented in Table 8 are number of copies that have been normalized against 10^6 molecule of β-actin.

For O=C(NNC(O)c1cc2ccccc2cc1O)c1cc2ccccc2cc1O (stereo not drawn) [SC23], the BCL2L1 expression (3 hours) was 9449.42 molecules/10^6 β-actin, the BCL2 expression (3 hours) was 152.37 molecules/10^6 β-actin and the CASP1 expression (3 hours) was 68.36 molecules/10^6 β-actin. It also gave a CCNA2 expression (3 hours) of 126.84 molecules/10^6 β-actin, a CCND3 expression (3 hours) of 195.17 molecules/10^6 β-actin and a CCNE1 expression (3 hours) of 51.36 molecules/10^6 β-actin. The CCNG1 expression (3 hours) was 2956.79 molecules/10^6 β-actin, the CDC2 expression (3 hours) was 2365.6 molecules/10^6 β-actin and the CDC25C expression (3 hours) was 394.83 molecules/10^6 β-actin. The CDK7 expression (3 hours) was 1068.25 molecules/10^6 β-actin, the CDK8 expression (3 hours) was 412.64 molecules/10^6 β-actin and the CDKN1A expression (3 hours) was 11.42 molecules/10^6 β-actin. For the same compound, the CDKN1B expression (3 hours) was 72.37 molecules/10^6 β-actin, the CDKN2A expression (3 hours) was 415.63 molecules/10^6 β-actin and the CDKN2C expression (3 hours) was 458.41 molecules/10^6 β-actin. The CYP1A2 expression (3 hours) was 59.45 molecules/10^6 β-actin, the DAP expression (3 hours) was 9037.57 molecules/10^6 β-actin and the E2F4 expression (3 hours) was 7540.97 molecules/10^6 β-actin. For the same compound, the E2F5 expression (3 hours) was 268.09 molecules/10^6 β-actin, the JUN expression (3 hours) was 1846.15 molecules/10^6 β-actin and the MAD expression (3 hours) was 496.75 molecules/10^6 β-actin. The MAP3K14 expression (3 hours) was 55.57 molecules/10^6 β-actin, the MYC expression (3 hours) was 974.69 molecules/10^6 β-actin and the NFKB1 expression (3 hours) was 2694.24 molecules/10^6 β-actin. For the same compound, the PCNA expression (3 hours) was 8574.58 molecules/10^6 β-actin, the PTGS2 expression (3 hours) was 82.69 molecules/10^6 β-actin and the RB1 expression (3 hours) was 7076.29 molecules/10^6 β-actin. For the same compound, the RBL2 expression (3 hours) was 1287.91 molecules/10^6 β-actin, the TGFBR2 expression (3 hours) was 1420.02 molecules/10^6 β-actin and the TGIF expression (3 hours) was 3112.84 molecules/10^6 β-actin. It also gave a TNFAIP1 expression (3 hours) of 4737.75 molecules/10^6 β-actin, a TNFRSF1A expression (3 hours) of 15.56 molecules/10^6 β-actin and a TNFSF10 expression (3 hours) of 82.86 molecules/10^6 β-actin. The TP53 expression (3 hours) was 567.53 molecules/10^6 β-actin, the TRAF4 expression (3 hours) was 69.06 molecules/10^6 β-actin and the BCL2L1 expression (6 hours) was 10428.62 molecules/10^6 β-actin. The BCL2 expression (6 hours) was 121.2 molecules/10^6 β-actin, the CASP1 expression (6 hours) was 80.87 molecules/10^6 β-actin and the CCNA2 expression (6 hours) was 348.88 molecules/10^6 β-actin. It also gave a CCND3 expression (6 hours) of 175.1 molecules/10^6 β-actin, a CCNE1 expression (6 hours) of 33.08 molecules/10^6 β-actin and a CCNG1 expression (6 hours) of 6161.69 molecules/10^6 β-actin. It also gave a CDC2 expression (6 hours) of 1650.84 molecules/10^6 β-actin, a CDC25C expression (6 hours) of 606.06 molecules/10^6 β-actin and a CDK7 expression (6 hours) of 778.75 molecules/10^6 β-actin. The CDK8 expression (6 hours) was 354.76 molecules/10^6 β-actin, the CDKN1A expression (6 hours) was 27.06 molecules/10^6 β-actin and the CDKN1B expression (6 hours) was 390.76 molecules/10^6 β-actin. The CDKN2A expression (6 hours) was 5611.87 molecules/10^6 β-actin, the CDKN2C expression (6 hours) was 781.31 molecules/10^6 β-actin and the CYP1A2 expression (6 hours) was 10 molecules/10^6 β-actin. For the same compound, the DAP expression (6 hours) was 12572.87 molecules/10^6 β-actin, the E2F4 expression (6 hours) was 1285.78 molecules/10^6 β-actin and the E2F5 expression (6 hours) was 243.27 molecules/10^6 β-actin. It also gave a JUN expression (6 hours) of 4168.04 molecules/10^6 β-actin, an MAD expression (6 hours) of 763.05 molecules/10^6 β-actin and an MAP3K14 expression (6 hours) of 68.69 molecules/10^6 β-actin. For the same compound, the MYC expression (6 hours) was 2650.11 molecules/10^6 β-actin, the NFKB1 expression (6 hours) was 3274.07 molecules/10^6 β-actin and the PCNA expression (6 hours) was 6433.1 molecules/10^6 β-actin. For the same compound, the PTGS2 expression (6 hours) was 157.43 molecules/10^6 β-actin, the RB1 expression (6 hours) was 5973.3 molecules/10^6 β-actin and the RBL2 expression (6 hours) was 2112.09 molecules/10^6 β-actin. The TGFBR2 expression (6 hours) was 2582.67 molecules/10^6 β-actin, the TGIF expression (6 hours) was 8002.87 molecules/10^6 β-actin and the TNFAIP1 expression (6 hours) was 7127.73 molecules/10^6 β-actin. For the same compound, the TNFRSF1A expression (6 hours) was 20.58 molecules/10^6 β-actin, the TNFSF10 expression (6 hours) was 532.07 molecules/10^6 β-actin and the TP53 expression (6 hours) was 1005.63 molecules/10^6 β-actin. For the same compound, the TRAF4 expression (6 hours) was 91.86 molecules/10^6 β-actin, the BCL2L1 expression (12 hours) was 23160.22 molecules/10^6 β-actin and the BCL2 expression (12 hours) was 122.24 molecules/10^6 β-actin. It also gave a CASP1 expression (12 hours) of 113.28 molecules/10^6 β-actin, a CCNA2 expression (12 hours) of 211.27 molecules/10^6 β-actin and a CCND3 expression (12 hours) of 137.33 molecules/10^6 β-actin. For the same compound, the CCNE1 expression (12 hours) was 48.10 molecules/10^6 β-actin, the CCNG1 expression (12 hours) was 9794.14 molecules/10^6 β-actin and the CDC2 expression (12 hours) was 1566.64 molecules/10^6 β-actin. For the same compound, the CDC25C expression (12 hours) was 779.22 molecules/10^6 β-actin, the CDK7 expression (12 hours) was 2551.62 molecules/10^6 β-actin and the CDK8 expression (12 hours) was 605.61 molecules/10^6 β-actin. The CDKN1A expression (12 hours) was 129.69 molecules/10^6 β-actin, the CDKN1B expression (12 hours) was 310.81 molecules/10^6 β-actin and the CDKN2A expression (12 hours) was 403.27 molecules/10^6 β-actin. It also gave a CDKN2C expression (12 hours) of 770.42 molecules/10^6 β-actin, a CYP1A2 expression (12 hours) of 69 molecules/10^6 β-actin and a DAP expression (12 hours) of 38087.74 molecules/10^6 β-actin.
